Test results taken from US20050038070A1, “Asthma and allergic inflammation modulators” (AMGEN INC., priority 2003, published 2005).

molecular target: T1, human CRTH2 (Homo sapiens, UniProt Q9Y5Y4); test: Human CRTH2 binding assay (3H-PGD2 binding, 293(124) cells); conditions: 3H-PGD2 binding to 293(124) cells stably expressing human CRTH2
T1 construct: Full-length human CRTH2 cDNA was generated by polymerase chain reaction (PCR); expressed in transfected cells; host or cells: 293 cells stably transfected with pHLT124 (pcDNA3.1(+)), G418-selected; named 293(124)
T1 sequence (Q9Y5Y4 1-395): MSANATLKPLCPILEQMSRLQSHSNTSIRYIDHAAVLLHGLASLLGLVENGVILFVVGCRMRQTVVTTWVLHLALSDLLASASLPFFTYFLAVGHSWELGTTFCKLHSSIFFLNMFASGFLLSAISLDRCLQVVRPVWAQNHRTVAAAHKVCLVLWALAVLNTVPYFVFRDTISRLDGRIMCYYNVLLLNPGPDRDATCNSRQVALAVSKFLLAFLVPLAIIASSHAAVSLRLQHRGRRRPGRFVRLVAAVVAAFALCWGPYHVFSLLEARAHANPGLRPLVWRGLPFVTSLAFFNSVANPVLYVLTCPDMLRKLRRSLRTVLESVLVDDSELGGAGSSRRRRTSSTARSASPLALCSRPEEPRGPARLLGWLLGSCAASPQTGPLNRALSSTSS
Description: Human CRTH2 Binding Assay
Full-length human CRTH2 cDNA was generated by polymerase chain reaction (PCR) using human genomic DNA as template and subsequently cloned into pcDNA3.1(+) (Invitrogen), generating a CRTH2 expression plasmid pHLT124. The plasmid was transfected into 293 cells, which […] CRTH2, using LipofectAMINETM reagents (Gibco/BRL). G418 ([…]) was added to the culture 48 h after transfection and cells were maintained under selection for 3 weeks to ensure that all surviving cells stably expressed CRTH2. These cells are labeled as 293(124) hereafter.
^3H-PGD2 binding assay was performed using 293(124) cells. In brief, cells were washed and suspended in RPMI containing 0.5% BSA and 20 mM HEPES. Each assay contained 25,000 cells, appropriate amount of test compound when necessary and a mixture of 1 nM ^3H-PGD2 (Amersham Pharmacia Biotech) and 30 nM of unlabeled PGD2 (Cayman Chemicals) in […] final volume. The cell mixture was incubated at room temperature for 2.5 h with shaking and the cells were separated from free ^3H-PGD2 and transferred onto a filter plate using a cell harvester. Radioactivity bound to the cells was measured on a liquid scintillation counter. Nonspecific binding was determined in the presence of […] of unlabeled PGD2.

IC50 [nM] | Structure (SMILES)
≥ 40 | CC(=O)N(c1ccc(Cl)cc1)[C@H]1C[C@@H](C)N(C(=O)c2ccc(Oc3ccccc3)cc2)c2ccccc21 [Compound 9]
< 40 | CC(=O)N(c1ccccc1)[C@H]1C[C@@H](C)N(C(=O)c2ccccc2)c2ccccc21 [Compound 3]
≥ 40 | CCCCC(=O)N(c1ccccc1)[C@H]1C[C@@H](C)N(C(=O)c2ccccc2)c2ccccc21 [Compound 4]
≥ 40 | CC(=O)N[C@H]1C[C@@H](C)N(C(=O)c2ccccc2)c2ccccc21 [Compound 12]
